Laboratory results: PubChem BioAssay AID248 (DTP/NCI, 2004)
Several values for one entry are separate records, joined by “and”; a condition that tells them apart may be missing. Identical values can stand only once. Inconclusive results and toxic doses are left out. No stated cut-off is given here; in the data, active means T/C of 150% or more; inactive means T/C below 125%.

System: L1210 leukemia ip in BDF1 mice, survival T/C
Test: NCI In Vivo Anticancer Drug Screen. Data for tumor model L1210 Leukemia (intraperitoneal) in B6D2F1 (BDF1) mice
Conditions: endpoint: mean survival time, higher = longer survival
In short: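 Value reflects the ratio of survival in compound-treated mice to survival in vehicle-treated controls, with both groups carrying the same transplanted tumor.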

[1] = dose: 75.0 mg/kg/injection, schedule: Q01DX001 (ip), vehicle: saline
[2] = dose: 150.0 mg/kg/injection, schedule: Q01DX001 (ip), vehicle: saline
[3] = dose: 300.0 mg/kg/injection, schedule: Q01DX001 (ip), vehicle: saline
[4] = dose: 100.0 mg/kg/injection, schedule: Q01DX009 (ip), vehicle: Klucel (hydroxypropylcellulose) (HPC)
[5] = dose: 200.0 mg/kg/injection, schedule: Q01DX009 (ip), vehicle: Klucel (hydroxypropylcellulose) (HPC)
[6] = dose: 400.0 mg/kg/injection, schedule: Q01DX009 (ip), vehicle: Klucel (hydroxypropylcellulose) (HPC)
[7] = dose: 100.0 mg/kg/injection, schedule: Q04DX003 (ip), vehicle: saline with Tween-80
[8] = dose: 200.0 mg/kg/injection, schedule: Q04DX003 (ip), vehicle: saline with Tween-80
[9] = dose: 400.0 mg/kg/injection, schedule: Q04DX003 (ip), vehicle: saline with Tween-80
[10] = dose: 100.0 mg/kg/injection, schedule: Q01DX001 (ip), vehicle: saline
[11] = dose: 200.0 mg/kg/injection, schedule: Q01DX001 (ip), vehicle: saline
[12] = dose: 400.0 mg/kg/injection, schedule: Q01DX001 (ip), vehicle: saline
[13] = dose: 100.0 mg/kg/injection, schedule: Q01DX009 (ip), vehicle: saline
[14] = dose: 100.0 mg/kg/injection, schedule: Q04DX003 (ip), vehicle: saline
[15] = dose: 200.0 mg/kg/injection, schedule: Q01DX009 (ip), vehicle: saline
[16] = dose: 200.0 mg/kg/injection, schedule: Q04DX003 (ip), vehicle: saline
[17] = dose: 400.0 mg/kg/injection, schedule: Q04DX003 (ip), vehicle: saline

Measured: T/C

CC1O/C(=N\O)C(C)O1 (centres undefined)
inactive: dose: 100.0 mg/kg/injection, schedule: Q01DX009 (ip), vehicle: carboxymethylcellulose (CMC) 95 % of control and 97 % of control | dose: 100.0 mg/kg/injection, schedule: Q04DX002 (ip), vehicle: carboxymethylcellulose (CMC) 106 % of control and 115 % of control | dose: 100.0 mg/kg/injection, schedule: Q04DX003 (ip), vehicle: carboxymethylcellulose (CMC) 93 % of control | dose: 200.0 mg/kg/injection, schedule: Q01DX009 (ip), vehicle: carboxymethylcellulose (CMC) 93 % of control and 95 % of control | dose: 200.0 mg/kg/injection, schedule: Q04DX002 (ip), vehicle: carboxymethylcellulose (CMC) 97 % of control and 102 % of control | dose: 200.0 mg/kg/injection, schedule: Q04DX003 (ip), vehicle: carboxymethylcellulose (CMC) 101 % of control | dose: 400.0 mg/kg/injection, schedule: Q01DX009 (ip), vehicle: carboxymethylcellulose (CMC) 93 % of control and 105 % of control | dose: 400.0 mg/kg/injection, schedule: Q04DX002 (ip), vehicle: carboxymethylcellulose (CMC) 95 % of control | dose: 400.0 mg/kg/injection, schedule: Q04DX003 (ip), vehicle: carboxymethylcellulose (CMC) 98 % of control

COC(=O)NC1CCCC1I (centres undefined)
inactive: [1] 102 % of control | [2] 109 % of control | [3] 98 % of control

O=C1NC(=O)C2(N1)c1ccccc1-c1ccccc12
inactive: [4] 95 % of control | [5] 90 % of control | [6] 95 % of control

CCSC1=NCCS1
inactive: dose: 9.5 mg/kg/injection, schedule: Q01DX001 (ip), vehicle: other 103 % of control | dose: 19.0 mg/kg/injection, schedule: Q01DX001 (ip), vehicle: other 112 % of control | dose: 38.0 mg/kg/injection, schedule: Q01DX001 (ip), vehicle: other 103 % of control | dose: 75.0 mg/kg/injection, schedule: Q01DX001 (ip), vehicle: other 112 % of control | dose: 150.0 mg/kg/injection, schedule: Q01DX001 (ip), vehicle: other 101 % of control

CC(=O)C1=C(O)c2ccccc2C(=O)C1=O
inactive: dose: 100.0 mg/kg/injection, schedule: Q01DX001 (ip), vehicle: water 96 % of control

CCN(CC)Cc1cc(Cl)cc(Cc2cc(Cl)cc(CN(CC)CC)c2O)c1O
inactive: dose: 200.0 mg/kg/injection, schedule: Q04DX003 (ip), vehicle: acetone 109 % of control | dose: 400.0 mg/kg/injection, schedule: Q04DX003 (ip), vehicle: acetone 98 % of control

O=C(NC1=NCCS1)C(=O)NC1=NCCS1
inactive: [7] 105 % of control | [8] 100 % of control | [9] 97 % of control

CCOc1cccnc1/C=N/NC(N)=S
inactive: dose: 50.0 mg/kg/injection, schedule: Q01DX001 (ip), vehicle: saline 106 % of control | [10] 102 % of control | [11] 100 % of control | [12] 108 % of control

CCOC(=O)C(CCC(=O)O)NC(=O)OCc1ccccc1 (centres undefined)
inactive: dose: 50.0 mg/kg/injection, schedule: Q04DX003 (ip), vehicle: Klucel (hydroxypropylcellulose) (HPC) 94 % of control | [4] 101 % of control | dose: 100.0 mg/kg/injection, schedule: Q04DX003 (ip), vehicle: Klucel (hydroxypropylcellulose) (HPC) 94 % of control and 100 % of control | [5] 106 % of control | dose: 200.0 mg/kg/injection, schedule: Q04DX003 (ip), vehicle: Klucel (hydroxypropylcellulose) (HPC) 93 % of control

COc1ccc(C(=O)/C(C)=N/O)cc1
inactive: [10] 103 % of control | [11] 103 % of control | [12] 101 % of control

CC(=O)Nc1ccc(Cl)cc1
inactive: dose: 50.0 mg/kg/injection, schedule: Q01DX001 (ip), vehicle: other 101 % of control | dose: 100.0 mg/kg/injection, schedule: Q01DX001 (ip), vehicle: other 98 % of control | dose: 200.0 mg/kg/injection, schedule: Q01DX001 (ip), vehicle: other 101 % of control | dose: 400.0 mg/kg/injection, schedule: Q01DX001 (ip), vehicle: other 106 % of control

CCCCCCC(CC)NCCO (centres undefined)
inactive: [1] 96 % of control

Cc1ccc(S(=O)(=O)N(C)c2ccc(C#N)c3ccccc23)cc1
inactive: [7] 97 % of control | [8] 89 % of control | [9] 90 % of control

CC(=O)CCCCC(=O)O
inactive: [13] 111 % of control | [14] 96 % of control | [15] 89 % of control | [16] 93 % of control | dose: 400.0 mg/kg/injection, schedule: Q01DX009 (ip), vehicle: saline 94 % of control | [17] 100 % of control

c1ccc2cc(CCc3cc4ccccc4cn3)ncc2c1
inactive: [14] 105 % of control | [16] 94 % of control | [17] 87 % of control

COc1ccccc1/C=N/N=C(/N)N[N+](=O)[O-]
inactive: dose: 100.0 mg/kg/injection, schedule: Q01DX001 (ip), vehicle: Klucel (hydroxypropylcellulose) (HPC) 102 % of control | dose: 200.0 mg/kg/injection, schedule: Q01DX001 (ip), vehicle: Klucel (hydroxypropylcellulose) (HPC) 101 % of control | dose: 400.0 mg/kg/injection, schedule: Q01DX001 (ip), vehicle: Klucel (hydroxypropylcellulose) (HPC) 98 % of control

CCCCCCCCOc1ccc(C=Nc2ccc(C(=O)OCC)cc2)cc1
inactive: [4] 87 % of control | [5] 92 % of control | [6] 94 % of control

CC(=O)N(Cc1cccc([N+](=O)[O-])c1)c1ccc(C(=O)O)cc1
inactive: dose: 100.0 mg/kg/injection, schedule: Q01DX001 (ip), vehicle: saline with Tween-80 98 % of control | dose: 200.0 mg/kg/injection, schedule: Q01DX001 (ip), vehicle: saline with Tween-80 119 % of control | dose: 400.0 mg/kg/injection, schedule: Q01DX001 (ip), vehicle: saline with Tween-80 93 % of control

O=C(/C=C/c1ccccc1)OC(C(=O)O)c1ccccc1 (centres undefined)
inactive: [1] 105 % of control | [2] 101 % of control | [3] 109 % of control

C[Si](C)(C)OC/C=C\CO[Si](C)(C)C
inactive: [13] 96 % of control | dose: 100.0 mg/kg/injection, schedule: Q04DX003 (ip), vehicle: alcohol 103 % of control | [15] 94 % of control | dose: 200.0 mg/kg/injection, schedule: Q04DX003 (ip), vehicle: alcohol 101 % of control | dose: 400.0 mg/kg/injection, schedule: Q04DX003 (ip), vehicle: alcohol 96 % of control

O=C1NC(=O)C2C3CCC(C3)C12 (centres undefined)
inactive: dose: 6.25 mg/kg/injection, schedule: Q04DX003 (ip), vehicle: saline 105 % of control | dose: 12.5 mg/kg/injection, schedule: Q04DX003 (ip), vehicle: saline 102 % of control | dose: 25.0 mg/kg/injection, schedule: Q04DX003 (ip), vehicle: saline 102 % of control

CC(Br)C(=O)Nc1ccccc1 (centres undefined)
inactive: dose: 100.0 mg/kg/injection, schedule: Q01DX009 (ip), vehicle: saline with Tween-80 93 % of control | [7] 101 % of control | dose: 200.0 mg/kg/injection, schedule: Q01DX009 (ip), vehicle: saline with Tween-80 103 % of control | [8] 95 % of control | dose: 400.0 mg/kg/injection, schedule: Q01DX009 (ip), vehicle: saline with Tween-80 90 % of control | [9] 95 % of control

COc1cc(C2=N/C(=C\c3cccc([N+](=O)[O-])c3)C(=O)O2)cc(OC)c1OC
inactive: dose: 25.0 mg/kg/injection, schedule: Q04DX002 (ip), vehicle: saline with Tween-80 87 % of control | dose: 50.0 mg/kg/injection, schedule: Q04DX002 (ip), vehicle: saline with Tween-80 90 % of control | dose: 100.0 mg/kg/injection, schedule: Q04DX002 (ip), vehicle: saline with Tween-80 93 % of control and 89 % of control
